The subject of one assay is 5-HT2A receptors. Put plainly: 5-HT2A receptor binding (3H-ketanserin autoradiography) in prefrontal cortex after chronic PCP. It is filed as in vivo, rat. The conditions noted are these: chronic PCP treatment. From the text: In order to further validate this chronic PCP model, the effects of this treatment paradigm on 5-HT2A receptors within the prefrontal cortex was investigated. Chronic PCP treatment produced a significant decrease in 5-HT2A receptors in layer II & III (controls 158±6, PCP 139±4 fmolmg^−1) and layers V & VI (controls 82±4, PCP 69±3 fmolmg^−1). This is entirely consistent with post mortem studies of 5-HT2A receptor binding from schizophrenic patents (Laurelle, M. et al).
5-HT2A receptor binding: Sections from the level of the prefrontal cortex were preincubated for two consecutive washes at room temperature in 50mM Tris HCl buffer pH 7.4 to remove endogenous ligand. Total binding was defined using 0.71 nM (Wolkin, A. et al) ^3H-ketanserin in the presence of 1μM prazozin and 1μM tetrabenazine (to block non 5-HT2A binding). Non-specific binding was defined using 50nM spiperone. Sections were incubated with the appropriate ligand solution for 1 hour at room temperature then washed twice for 10 minutes in ice cold buffer before being rinsed in ice cold water and rapidly air dried. The sections were then exposed to film (Biomax MR, Kodak) with previously calibrated (Wolkin, A. et al) ^3H-standards.
Autoradiograms were analysed using MCID densitometry system. Results were statistically analysed using a one-way ANOVA followed by a student Newman-Keuls post hoc test.

Assay [1] relates to UNC5H1 (a netrin receptor). Put plainly: Rat Atlas Array, prefrontal cortex, chronic PCP model. It is filed as in vivo.
Protocol: (§1) Rats were injected with PCP (2.58 mg/kg) or vehicle i.p. for 5 days according to the YRING PCP model. […] On the same day, the rats began a course of i.p. injections every 2.5 days with either PCP (2.58 mg/kg) or vehicle.
(§2) 21 days after minipump implantation, animals were killed by cervical dislocation and the prefrontal cortex dissected and stored at −70° C. RNA was then prepared according to the protocol below and the corresponding cDNA synthesis and hybridisation procedure were conducted using the rat Atlas Array kit according to the manufacturer's instructions (Clontech).
(§3) Results are expressed as mean relative optical densities ±SEM. Statistical significance was defined as P<0.05. N=¾ per group.
(§4) Frozen tissue already resides in the ribolyser tubes from the dissection procedure • 1) Add 1.1 ml Qiagen lysis buffer (containing β-mercaptoethanol, final volume =3%). • 2) Perform 3×20 sec homogenisations at 6.5 g in a ribolyser. • 3) Spin 3 min in microfuge. • 4) Decant to fresh tube and re-spin 3 min. • 5) Decide at this stage if you want to dilute supernatant with more lysis buffer. • 6) Add equal volume of phenol/CHCl3 pH4.7, vortex 30 sec and leave on ice for 10 min. • 7) Re-vortex and spin 4° C. 5-10 min at 1500 g. • 8) Decant supernatant and add 100 μl H2O. Add an equal volume of phenol/CHCl3 pH4.7, vortex, spin 5-10 min at 1500 g. • 9) Decant supernatant and add 100 μl H2O. […]
Another assay deals with Synapsins 1A&1B. Described as above. The class given is in vivo.
The next assay relates to CIRL2 variant AB mRNA. Put plainly: Semi-quantitative RT-PCR, prefrontal cortex, chronic PCP and antipsychotic treatment. The class given is in vivo, rat. The conditions noted are these: chronic PCP treatment. The protocol: FIG. 15 illustrates the level of CIRL2 variant AB mRNA present in the prefrontal cortex of rat brain following chronic PCP and antipsychotic treatment (n=12 for all groups apart from veh-veh where n=11). […] and […] (SEQ ID NOS: 27-28) were the primer sequences used to amplify this product.
RT-PCR for specific isoforms of CIRL was then conducted in the prefrontal cortex.
1 ml of lysis buffer (Qiagen), including 1% β-mercaptoethanol, was added to approximately 50-100 mg of brain tissue. Tissue samples were homogenised using a ribolyser (Hybaid) with 3 bursts at 6.5 g lasting 20 seconds each. Samples were then spun at room temperature in a microfuge for 3 minutes. The supernatant was removed and re-spun for a further 3 minutes. The supernatant was decanted to a fresh tube to which an equal volume of 70% ethanol was added. The remaining RNA isolation procedure was carried out according to the manufacturer's protocol (Qiagen).
Synthesis of cDNA was carried out according to manufacturers protocols (Life Technologies). Briefly 3-5μg of total RNA was reverse transcribed using oligo dT priming. After cDNA synthesis, samples were aliquoted and stored at −70° C. […]
Alterations in expression levels were determined by semi-quantitative PCR. […] Samples were removed over 4 consecutive cycles, however, the first cycle to be removed sometimes varied depending on when logarithmic amplification was detected. […]

The test system of the next assay is TNFα mRNA. Put plainly: RT-PCR for TNFα mRNA in rat prefrontal cortex. It is filed as in vivo. Conditions: acute PCP, single i.p. injection 2 mg/kg, 2 hrs and 24 hrs.

Each structure is given as a SMILES string.

Protocol for Synapsins 1A&1B: as §1, §2, §3, §4
Protocol for TNFα mRNA: Four groups of rats were treated with (a) chronic PCP, (b) chronic vehicle (control), (c) chronic PCP plus chronic clozapine (as above) or (d) chronic PCP plus chronic haloperidol (as above). The tissue was processed for RNA extraction and RT-PCP as described above, using primers specific for TNFα mRNA.

For `c1ccc(C2(N3CCCCC3)CCCCC2)cc1` [PCP, phencyclidine], in the assay with 5-HT2A receptors, the “5-HT2A receptors, prefrontal cortex layer II & III” value was found to be 139±4 fmolmg^−1 and the “5-HT2A receptors, prefrontal cortex layers V & VI” value is given as 69±3 fmolmg^−1. Besides, the “UNC5H1 expression (Atlas Array)” value in assay [1] is 3936 ± 472 relative optical densities. Moreover, the “Synapsins 1A&1B expression (Atlas Array)” value in the assay on Synapsins 1A&1B is reported as 23020 ± 1412 relative optical densities. Besides, the “expression of CIRL2 (AB) (RT-PCR)” value in the assay on CIRL2 variant AB mRNA is “reduced”. In the assay on TNFα mRNA, the “levels of TNFα in rat prefrontal cortex” value is on record as “reduced”.
